Patent US10561703B2, “Method of modulating sex hormone levels using a sex hormone secretion modulator” (GEMVAX & KAEL CO., LTD., priority 2013, dated 2020)

System: Estradiol E2
Experiment: Estradiol E2 level in blood (serum CLIA) after repeated sc PEP-1
Assay type: in vivo, SD rats
Description: PEP-1 (peptide of SEQ ID NO: 1), lyophilized white powder, obtained according to the method mentioned in example 1 was dissolved in 0.9% of saline, considering the correction factor of PEP-1 (purity: 94.13%, content: 92.36%, correction factor: 1.15). 50 mg/mL stock solution was further diluted into 20 mg/mL, 2 mg/mL, and 1 mg/mL with 0.9% saline, and stored at 4° C. for a week until the use.
The purpose of this example is to confirm the change of sexual hormones in blood from SD rats with 7 days repeated daily administration of SEQ ID NO: 1 peptide, PEP-1. This experiment followed the Ethics Regulation of Animal Test by KAMSI Inc. (Korea Animal Medical Science Institute). In addition, this experiment, Non-GLP experiment, referred to the MFDS (Ministry of Food and Drug Safety) notification; Agent 2013-40 (5th April 2013), Principles of Good Laboratory Practice (1997).
SPF Rats (Crlj:CD(SD)) were purchased from ORIENTBio Inc. (Mokdong-ri, Buk-myeon, Gapyeong-gun, Gyeonggi-do, Republic of Korea). 75 male (6.5 weeks old and 190˜210 g) and 75 female (6.5 weeks old and 160˜180 g) rats were monitored for 4 days, and 64 of male and female rats (each) were selected for the experiment. Raising condition is as follows; 23±3° C. of temperature, […] of relative humidity, 10˜20 times/hr of number of air changes, 12 hours (8 a.m.˜8 p.m.) of lighting with 150˜300 Lux of intensity.
64 male and female […] (mentioned above) were divided into 8 groups. Administration regimen, for example, drugs, routes, dosages, and volumes were as follows:
The detailed administration regimen is as follows; once a day, twice a day and twice a week in each experimental group. Injection initiated at 10 a.m. every day, and each rat was injected at one minute intervals. Rats in Group 9, 10, 13 and 14 were injected twice a week. Administration of high dose test agent preceded that of low dose. The volume of injection was calculated using recently measured weight of rats, and it was 5 mL/kg. Subcutaneous injection was performed as follows; assistant tilted the back of rat upward, and experimenter sterilized the back of rat with 70% alcohol, followed by subcutaneous injection of test agent with 26 G syringe.
1.4 mL of blood sample (0.7 mL of serum) was collected after measurement of weight (Day 0). Next day (1 Day), 1.4 mL of blood sample (0.7 mL of serum) was collected twice after injection of test agent (4 hrs and 8 hrs after administration of test agent). […]
A CLIA (Chemi-Luminescence Immune Assay) Kit was used to analyze Testosterone, Estradiol E2, FSH (Follicle stimulating hormone), and LH (Luteinizing hormone). […]
Estradiol E2 was analyzed using the samples prepared from example 2. […] As mentioned in example 2, CLIA (Chemi-luminescence immune assay) Kit was used, following the manufacture's protocol. […]

In the case of “EARPALLTSRLRFIPK (listed as Homo sapiens) [PEP-1, hormone secretion modulator / GnRH analog]”, the “Estradiol E2 level” value (female group, Day 1, all groups (PEP-1 and/or vehicle), baseline 20-50 pg/mL) is reported as 16 to 30 pg/mL, the “Effect on Estradiol E2 level” value (female group, level recovered from Day 3-4) is reported as “inhibited the Estradiol E2 level in the beginning” and the “Effect on Estradiol E2 level” value (male rat) is reported as “does not have effect on Estradiol E2 level”. For the same sequence, the “Estradiol E2 level” value (male rat, initial level remained same until Day 7) was 15 to 20 pg/mL.
